The results in this text go back to US20150051176A1, “ARYL DERIVATIVES AS SPHINGOSINE-1 PHOSPHATE RECEPTORS MODULATORS” (Allergan, Inc., priority 2013, published 2015).

T1 sequence (P21453 whole entry): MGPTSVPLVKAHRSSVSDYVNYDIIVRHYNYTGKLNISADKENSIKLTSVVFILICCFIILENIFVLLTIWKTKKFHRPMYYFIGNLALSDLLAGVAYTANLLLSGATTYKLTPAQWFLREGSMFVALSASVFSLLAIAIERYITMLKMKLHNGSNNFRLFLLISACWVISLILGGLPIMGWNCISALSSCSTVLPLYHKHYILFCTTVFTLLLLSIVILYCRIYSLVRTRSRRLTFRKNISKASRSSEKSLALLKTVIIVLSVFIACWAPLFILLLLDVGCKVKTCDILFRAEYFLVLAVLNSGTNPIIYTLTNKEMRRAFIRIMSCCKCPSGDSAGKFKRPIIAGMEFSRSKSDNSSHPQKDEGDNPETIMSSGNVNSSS

The assay has as its target T1, human S1P1 receptor (Homo sapiens, UniProt P21453).
T1 construct: expressed in transfected cells; membranes used
Nature of the assay: GTP γ35S binding assay for S1P1 activity. Type of assay: biochemical. The following applies: membranes of cells stably expressing the S1P1 receptor, test concentrations 0.08 to 5,000 nM. Here is the method: Compounds were synthesized and tested for S1P1 activity using the GTP γ^35S binding assay. These compounds may be assessed for their ability to activate or block activation of the human S1P1 receptor in cells stably expressing the S1P1 receptor.
GTP γ^35S binding was measured in the medium containing (mM) HEPES 25, pH 7.4, MgCl2 10, NaCl 100, dithiothreitol 0.5, digitonin 0.003%, 0.2 nM GTP γ^35S, and 5 μg membrane protein in a volume of 150 μl. Test compounds were included in the concentration range from 0.08 to 5,000 nM unless indicated otherwise. Membranes were incubated with 100 μM 5′-adenylylimidodiphosphate for 30 min, and subsequently with 10 μM GDP for 10 min on ice. Drug solutions and membrane were mixed, and then reactions were initiated by adding GTP γ^35S and continued for 30 min at 25° C. Reaction mixtures were filtered over Whatman GF/B filters under vacuum, and washed three times with 3 mL of ice-cold buffer (HEPES 25, pH7.4, MgCl2 10 and NaCl 100). Filters were dried and mixed with scintillant, and counted for ^35S activity using a β-counter. Agonist-induced GTP γ^35S binding was obtained by subtracting that in the absence of agonist. Binding data were analyzed using a non-linear regression method. In case of antagonist assay, the reaction mixture contained 10 nM […] in the presence of test antagonist at concentrations ranging from 0.08 to 5000 nM.
On the technique in general: GTPγS resists hydrolysis and so accumulates on activated G proteins.
As a reminder, the EC50 is the concentration at which the effect is half-maximal. Read a low EC50 as a more potent agent. On to `Cc1ccc(CC(CCCCCCNCCCP(=O)(O)O)c2cccc(Cl)c2)cc1C` (centres unmarked) [3-{[7-(3-Chlorophenyl)-8-(3,4-dimethylphenyl)octyl]amino}propyl)phosphonic acid], for which a half-maximal effect (EC50) was put at 169 nM. Next, `Cc1ccc(CC(CCCCCCCNCCC(=O)O)c2cc(F)cc(F)c2)cc1C` (centres unmarked) [3-{[8-(3,5-Difluorophenyl)-9-(3,4-dimethylphenyl)nonyl]amino}propanoic acid]: 45.4 nM; `Cc1ccc(CC(CCCCCCCNCCC(=O)O)c2cccc(Cl)c2)cc1C` (centres unmarked) [3-{[8-(3-Chlorophenyl)-9-(3,4-dimethylphenyl)nonyl]amino}propanoic acid]: 487 nM. For the compound `Cc1ccc(CC(CCCCCCCNCCCP(=O)(O)O)c2cccc(Cl)c2)cc1C` (centres unmarked) [3-{[8-(3-chlorophenyl)-9-(3,4-dimethylphenyl)nonyl]amino}propylphosphonic acid], the EC50 turned out to be 8.18 nM. `O=C(O)CCNCCCCCCCCC(Cc1ccccc1)c1cccc(Cl)c1` (centres unmarked) [3-{[9-(3-Chlorophenyl)-10-phenyldecyl]amino}propanoic acid] displayed an EC50 of 21.8 nM. Against the preceding compound, the EC50 is about 2.7-fold higher. Compound `Cc1ccc(CC(CCCCCCCNCCCP(=O)(O)O)c2cc(F)cc(F)c2)cc1C` (centres unmarked) [(3-{[8-(3,5-Difluorophenyl)-9-(3,4-dimethylphenyl)nonyl]amino}propyl)phosphonic acid] displayed a 50% effective concentration (EC50) of 3.03 nM. On to `Cc1ccc(CC(CCCCCCCCNCCCP(=O)(O)O)c2cccc(Cl)c2)cc1C` (centres unmarked) [(3-{[9-(3-Chlorophenyl)-10-(3,4-dimethylphenyl)decyl]amino}propyl)phosphonic acid], for which the response was half-maximal at 293 nM (EC50). Under `O=P(O)(O)CCCNCCCCCCCCC(Cc1ccccc1)c1cccc(Cl)c1` (centres unmarked) [(3-{[9-(3-Chlorophenyl)-10-phenyldecyl]amino}propyl)phosphonic acid] stands 2.13 nM.
